{"source": "patent US11458189B2", "about": "“Cytoprotective drugs” (BALMES TRANSPLANTATION, priority 2017, dated 2022)", "system": "Sprague Dawley rats", "assay": "Survival in acute renal failure model (unilateral renal ischemia-reperfusion with contralateral nephrectomy)", "assay_type": "in vivo, rat", "settings": "Allopurinol 3 mg/kg single iv injection 60 min before ischemia; up to 7 days after reperfusion; control group 29%", "protocol": "The protocol is similar to the one described by Narayan P et al, Am J Physiol Renal Physiol, 311(2):F352-61, 2016 and was approved by an ethics committee. In summary, general anesthesia is induced in male Sprague Dawley rats (250-300 g) using sodium pentobarbital (60 mg/kg, ip) instead of ketamine/xylazine in the protocol described by Narayan P et al, Am J Physiol Renal Physiol, 311 (2): F352-61, 2016. A skin incision is made on the dorsal surface and the left kidney is exposed by incisions on the flank. The left renal pedicle is then isolated and clamped for 60 minutes using atraumatic vascular clamps. The kidneys are replaced in the abdominal cavity to maintain temperature and the incision is covered with gauze soaked in 0.9% saline. After the ischemia time (60 minutes), the clamps are released to begin reperfusion. Reperfusion is monitored (kidney color change) for 1 to 2 minutes and physiological saline (1 mL) is administered to prevent dehydration. Next, a right kidney nephrectomy is performed and the incisions are closed with sutures. The animals are kept at approximately 37° C. using a thermoregulated system during the operation. Buprenorphine (0.2 mg/kg sc) is administered before the animals are returned to their cages and once a day until 4 days after reperfusion. […]\nThe compounds Micafungin (0.25 mg/kg), Anidulafungin (0.35 mg/kg) or the combination of the compounds Micafungin (0.25 mg/kg) and Allopurinol (3 mg/kg) are administered solubilized in physiological saline as a single intravenous injection into the tail vein 60 (±15) minutes before the onset of ischemia. The volume of administration of the compounds is determined on the basis of the body weight (2 mL/kg) of each animal. […]\nFor each experiment the curve of the number of surviving animals versus the number of days post-ischemia-reperfusion (Kaplan-Meier curve) is shown. The x-axis is graduated from the first day =0 to the seventh day =6 The y-axis is graduated from 0% to 100% of the initial population of the analyzed group. […]"}
{"smiles": "Oc1ncnc2[nH]ncc12", "note": "[Allopurinol]", "values": [{"measurement": "Surviving animals at end of Kaplan-Meier curve (% of initial population of the group)", "value": 63, "unit": "%"}]}
